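The compound was tested at five concentrations on cells cultured in 96-well plates, with a 48-hour exposure period. GI50 is the concentration that inhibits growth by half.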 Activity calls are given as the source filed them. Cut-off read from the data, not from the text of the source: active = GI50 up to about 1.1 µM and inactive = higher.
Experiments:
Assay in all cases: NCI-60 cell line screen, 48 h
ACHN = test system: ACHN
SN12C = test system: SN12C
PC-3 = test system: PC-3
Hs-578T = test system: Hs-578T
A498 = test system: A498
SNB-75 = test system: SNB-75
SNB-19 = test system: SNB-19
COLO 205 = test system: COLO 205
A549 = test system: A549
U-251 = test system: U-251
M14 = test system: M14
HCT-15 = test system: HCT-15
DU-145 = test system: DU-145
SK-OV-3 = test system: SK-OV-3
SW-620 = test system: SW-620
HCC 2998 = test system: HCC 2998
MDA-MB-435 = test system: MDA-MB-435
OVCAR-3 = test system: OVCAR-3
SF-268 = test system: SF-268
SK-MEL-2 = test system: SK-MEL-2
NCI-H23 = test system: NCI-H23
SF-539 = test system: SF-539
NCI-H226 = test system: NCI-H226
MDA-MB-231 = test system: MDA-MB-231
T47D = test system: T47D
OVCAR-8 = test system: OVCAR-8
SF-295 = test system: SF-295
RPMI-8226 = test system: RPMI-8226
HOP-62 = test system: HOP-62
NCI-H460 = test system: NCI-H460
HL-60 = test system: HL-60
MDA-N = test system: MDA-N
OVCAR-5 = test system: OVCAR-5
EKVX = test system: EKVX
CCRF-CEM = test system: CCRF-CEM
K562 = test system: K562
HCT-116 = test system: HCT-116
SK-MEL-5 = test system: SK-MEL-5
OVCAR-4 = test system: OVCAR-4
TK-10 = test system: TK-10
UACC-257 = test system: UACC-257
IGROV-1 = test system: IGROV-1
NCI-H522 = test system: NCI-H522
MCF7 = test system: MCF7
HT-29 = test system: HT-29
NCI/ADR-RES = test system: NCI/ADR-RES
786-0 = test system: 786-0
SK-MEL-28 = test system: SK-MEL-28
Malme-3M = test system: Malme-3M
UO-31 = test system: UO-31
MOLT-4 = test system: MOLT-4
KM12 = test system: KM12
LOX IMVI = test system: LOX IMVI
RXF 393 = test system: RXF 393
BT-549 = test system: BT-549
HOP-92 = test system: HOP-92
CAKI-1 = test system: CAKI-1

## COC(=O)c1c(O)ccc2c1c1c(n2-c2ccc(OC)cc2)C(=O)c2ccccc2C1=O
ACHN
  GI50: 12.8 µM (inactive)
SN12C
  GI50: 28.9 µM (inactive)
PC-3
  GI50: 20.7 µM (inactive)
Hs-578T
  GI50: 16.9 µM (inactive)
A498
  GI50: > 100 µM (inactive)
SNB-75
  GI50: 23.9 µM (inactive)
SNB-19
  GI50: 20.6 µM (inactive)
COLO 205
  GI50: 1.94 µM (inactive)
A549
  GI50: 10.1 µM (inactive)
U-251
  GI50: 13 µM (inactive)
M14
  GI50: 63.2 µM (inactive)
HCT-15
  GI50: 18.3 µM
DU-145
  GI50: 21.5 µM (inactive)
SK-OV-3
  GI50: 19.3 µM (inactive)
SW-620
  GI50: 42.3 µM (inactive)
HCC 2998
  GI50: 3.62 µM (inactive)
MDA-MB-435
  GI50: 66.8 µM (inactive)
OVCAR-3
  GI50: 22.9 µM (inactive)
SF-268
  GI50: 14.8 µM (inactive)
SK-MEL-2
  GI50: 26.1 µM (inactive)
NCI-H23
  GI50: 36.7 µM (inactive)
SF-539
  GI50: 15.3 µM (inactive)
NCI-H226
  GI50: 25.5 µM (inactive)
MDA-MB-231
  GI50: 16.5 µM (inactive)
T47D
  GI50: 11.7 µM (inactive)
OVCAR-8
  GI50: 12.6 µM (inactive)
SF-295
  GI50: 18.7 µM (inactive)
RPMI-8226
  GI50: 9.73 µM (inactive)
HOP-62
  GI50: 20.2 µM (inactive)
NCI-H460
  GI50: 5.04 µM (inactive)
HL-60
  GI50: > 100 µM (inactive)
MDA-N
  GI50: 57.1 µM (inactive)
OVCAR-5
  GI50: 30.7 µM (inactive)
EKVX
  GI50: 16.6 µM (inactive)
CCRF-CEM
  GI50: 15.2 µM (inactive)
K562
  GI50: 55.2 µM (inactive)
HCT-116
  GI50: 16.9 µM (inactive)
SK-MEL-5
  GI50: 44.3 µM (inactive)
OVCAR-4
  GI50: 18.6 µM (inactive)
TK-10
  GI50: 12 µM (inactive)
UACC-257
  GI50: 64.9 µM (inactive)
IGROV-1
  GI50: 16.6 µM (inactive)
NCI-H522
  GI50: 15.1 µM (inactive)
MCF7
  GI50: 16.6 µM (inactive)
HT-29
  GI50: 4.14 µM (inactive)
NCI/ADR-RES
  GI50: 14.7 µM (inactive)
786-0
  GI50: 15.7 µM (inactive)
SK-MEL-28
  GI50: 29.9 µM (inactive)
Malme-3M
  GI50: 24.4 µM (inactive)
UO-31
  GI50: 11.9 µM (inactive)
MOLT-4
  GI50: 8.28 µM (inactive)
KM12
  GI50: 14.1 µM (inactive)
LOX IMVI
  GI50: 21.7 µM (inactive)
RXF 393
  GI50: 13 µM (inactive)
BT-549
  GI50: 22 µM (inactive)
HOP-92
  GI50: 14.8 µM (inactive)
CAKI-1
  GI50: 14.1 µM (inactive)

Source: ChEMBL document CHEMBL1201862, “PubChem BioAssay data set” (2004)
